Measured values: patent US20130180014A1, “Pyridine Compounds for Controlling Invertebrate Pests III” (BASF SE, priority 2010, published 2013)

Tests used:
Assay type in all cases: in vivo
Megoura viciae = test: Vetch aphid, bean leaf disk in microtiterplate; details: foliar, 144 h, test solution 2500 mg/L, leaf disks sprayed with 2.5 μl, 6 days
Description: The active compounds were formulated in 1:3 (vol/vol) DMSO:water with different concentrations of formulated compounds.
Bean leaf disks were placed into microtiterplates filled with 0.8% agar-agar and 2.5 ppm OPUS™. The leaf disks were sprayed with 2.5 μl of the test solution and 5 to 8 adult aphids were placed into the microtiterplates which were then closed and kept at 23±1° C. and 50±5% relative humidity under fluorescent light for 6 days. Mortality was assessed on the basis of vital, reproduced aphids. Aphid mortality and fecundity was then visually assessed.

Myzus persicae [1] = test: Green peach aphid, systemic, artificial diet under membrane in 96-well plate; details: 72 h, 3 days, in comparison with untreated controls
Excerpt: For evaluating control of green peach aphid (Myzus persicae) through systemic means the test unit consisted of 96-well-microtiter plates containing liquid artificial diet under an artificial membrane.
The compounds were formulated using a solution containing 75% vol/vol water and 25% vol/vol DMSO. Different concentrations of formulated compounds were pipetted into the aphid diet, using a custom built pipetter, at two replications. After application, 5 to 8 adult aphids were placed on the artificial membrane inside the microtiter plate wells. The aphids were then allowed to suck on the treated aphid diet and incubated at about 23+1° C. and about 50+5% relative humidity for 3 days. Aphid mortality and fecundity was then visually assessed.

Aphis craccivora = test: Cowpea aphid, spray on potted cowpea plants; details: cowpea plants sprayed, assessed after 24, 72 and 120 hours, in comparison with untreated controls
Description: The active compounds were formulated in 50:50 (vol/vol) acetone:water. The test solution was prepared at the day of use.
Potted cowpea plants colonized with 100-150 aphids of various stages were sprayed after the pest population had been recorded. Population reduction was assesed after 24, 72, and 120 hours.

Aphis gossypii = test: Cotton aphid, mixed life stages, method a) cotyledon dip; details: cotton cotyledons dipped, in comparison with untreated controls
Excerpt: (§1) The active compounds were formulated in 50:50 (vol/vol) acetone:water and 100 ppm Kinetica™ surfactant.
Cotton plants at the cotyledon stage (one plant per pot) were infested by placing a heavily infested leaf from the main colony on top of each cotyledon. The aphids were allowed to transfer to the host plant overnight, and the leaf used to transfer the aphids was removed. The cotyledons were dipped in the test solution and allowed to dry. After days, mortality counts were made.

Myzus persicae [2] = test: Green peach aphid, mixed life stages, method a) pepper leaf dip; details: foliar, 120 h, pepper leaves dipped, after 5 days, in comparison with untreated controls
Excerpt: as §1
Pepper plants in the 2nd leaf-pair stage (variety ‘California Wonder’) were infested with approximately 40 laboratory-reared aphids by placing infested leaf sections on top of the test plants. The leaf sections were removed after 24 hr. The leaves of the intact plants were dipped into gradient solutions of the test compound and allowed to dry. Test plants were maintained under fluorescent light (24 hour photoperiod) at about 25° C. and 20-40% relative humidity. Aphid mortality on the treated plants, relative to mortality on check plants, was determined after 5 days.

In the case of O=C(Nc1cccnc1)c1cncc(C(F)(F)F)c1 [Example 18, N-Pyridin-3-yl-5-trifluoromethylnicotinamide], the mortality at 2500 µg/mL (Megoura viciae) is reported as at least 90%, the mortality at 2500 ppm (Myzus persicae [1]) is reported as 100% and the mortality at 300 ppm (Aphis craccivora) is reported as at least 90%. The mortality at 300 ppm (Aphis gossypii) was at least 75% and the mortality at 300 ppm (Myzus persicae [2]) was at least 90%.
